Data taken from patent US10765114B2, “4-amino-6-(pyridyl and 2-substitutedphenyl)-picolinates and 6-amino-2-(pyridyl and 2-substitutedphenyl)-pyrimidine-4-carboxylates and their use as herbicides” (Dow AgroSciences LLC, priority 2013, dated 2020).

Each molecule was assayed on Key Grass and Sedge Weeds as well as Grass Crops (assay: Post-Emergent Test II (Table 6)). Conditions: ZEAMX: maize, corn (Zea mays), crop, 140 g ai/ha.
Assay type: in vivo
Experimental: (§1) Seeds or nutlets of the desired test plant species were planted in Sun Gro Metro-Mix® 360 planting mixture, which typically has a pH of 6.0 to 6.8 and an organic matter content of about 30 percent, in plastic pots with a surface area of 64 square centimeters. When required to ensure good germination and healthy plants, a fungicide treatment and/or other chemical or physical treatment was applied. The plants were grown for 7-21 days in a greenhouse with an approximate 15 h photoperiod which was maintained at about 23-29° C. during the day and 22-28° C. during the night. Nutrients and water were added on a regular basis and supplemental lighting was provided with overhead metal halide 1000-Watt lamps as necessary. The plants were employed for testing when they reached the first or second true leaf stage.
(§2) A weighed amount, determined by the highest rate to be tested, of each test compound was placed in a 25 mL glass vial and was dissolved in 4 mL of a 97:3 v/v mixture of acetone and DMSO to obtain concentrated stock solutions. […] The concentrated stock solutions obtained were diluted with 20 mL of an aqueous mixture containing acetone, water, isopropyl alcohol, DMSO, Atplus 411F crop oil concentrate, and Triton® X-155 surfactant in a 48.5:39:10:1.5:1.0:0.02 v/v ratio to obtain spray solutions containing the highest application rates. Additional application rates were obtained by serial dilution of 12 mL of the high rate solution into a solution containing 2 mL of 97:3 v/v mixture of acetone and DMSO and 10 mL of an aqueous mixture containing acetone, water, isopropyl alcohol, DMSO, Atplus 411F crop oil concentrate, and Triton X-155 surfactant in a 48.5:39:10:1.5:1.0:0.02 v/v ratio to obtain ½×, ¼×, ⅛× and 1/16× rates of the high rate. Compound requirements are based upon a 12 mL application volume at a rate of 187 liters per hectare (L/ha). Formulated compounds were applied to the plant material with an overhead Mandel track sprayer equipped with 8002E nozzles calibrated to deliver 187 L/ha over an application area of 0.503 square meters at a spray height of 18 inches (43 cm) above the average plant canopy height. Control plants were sprayed in the same manner with the solvent blank.
(§3) The treated plants and control plants were placed in a greenhouse as described above and watered by subirrigation to prevent wash-off of the test compounds. After 14 days, the condition of the test plants as compared with that of the untreated plants was determined visually and scored on a scale of 0 to 100 percent where 0 corresponds to no injury and 100 corresponds to complete kill and presented as indicated in Table A. Some of the compounds tested, application rates employed, plant species tested, and results are given in Table 5.

SMILES | Visual Growth Reduction (%) 14 Days After Application, ZEAMX
COC(=O)c1nc(-c2ccc(Cl)c(F)c2Cl)c(F)c(N)c1Cl [Compound 19, Methyl 4-amino-3-chloro-6-(2,4-dichloro-3-fluorophenyl)-5-fluoropicolinate] | A (95-100)

Each molecule was assayed on Key Broadleaf Weed and Crop Species (assay: Post-Emergent Test II (Table 5)). Conditions: Abutilon theophrasti, post-emergence, 336 h, ABUTH: velvetleaf (Abutilon theophrasti), application rate 70 (kg ai/ha; footnote: g ai/ha), read-out: Visual Growth Reduction (%) 14 Days After Application ABUTH.
Assay type: in vivo
Experimental: as §1, §2, §3

SMILES | pest or weed control at 70 g/ha [%]
COC(=O)c1nc(-c2ccc(Cl)c(F)c2Cl)c(F)c(N)c1Cl [Compound 19, Methyl 4-amino-3-chloro-6-(2,4-dichloro-3-fluorophenyl)-5-fluoropicolinate] | 95 to 100

Same assay, conditions: Abutilon theophrasti, post-emergence, 336 h, ABUTH: velvetleaf (Abutilon theophrasti), application rate 140 (kg ai/ha; footnote: g ai/ha), read-out: Visual Growth Reduction (%) 14 Days After Application ABUTH

SMILES | pest or weed control at 140 g/ha [%]
COC(=O)c1nc(-c2ccc(Cl)c(F)c2Cl)c(F)c(N)c1Cl [Compound 19, Methyl 4-amino-3-chloro-6-(2,4-dichloro-3-fluorophenyl)-5-fluoropicolinate] | 95 to 100

Same assay, conditions: Amaranthus retroflexus, post-emergence, 336 h, AMARE: redroot pigweed (Amaranthus retroflexus), application rate 70 (kg ai/ha; footnote: g ai/ha), read-out: Visual Growth Reduction (%) 14 Days After Application AMARE

SMILES | pest or weed control at 70 g/ha [%]
COC(=O)c1nc(-c2ccc(Cl)c(F)c2Cl)c(F)c(N)c1Cl [Compound 19, Methyl 4-amino-3-chloro-6-(2,4-dichloro-3-fluorophenyl)-5-fluoropicolinate] | 95 to 100

Same assay, conditions: Amaranthus retroflexus, post-emergence, 336 h, AMARE: redroot pigweed (Amaranthus retroflexus), application rate 140 (kg ai/ha; footnote: g ai/ha), read-out: Visual Growth Reduction (%) 14 Days After Application AMARE

SMILES | pest or weed control at 140 g/ha [%]
COC(=O)c1nc(-c2ccc(Cl)c(F)c2Cl)c(F)c(N)c1Cl [Compound 19, Methyl 4-amino-3-chloro-6-(2,4-dichloro-3-fluorophenyl)-5-fluoropicolinate] | 95 to 100

Same assay, conditions: Brassica napus, post-emergence, 336 h, BRSSS: oilseed rape, canola (Brassica napus), application rate 70 (kg ai/ha; footnote: g ai/ha), read-out: Visual Growth Reduction (%) 14 Days After Application BRSSS

SMILES | pest or weed control at 70 g/ha [%]
COC(=O)c1nc(-c2ccc(Cl)c(F)c2Cl)c(F)c(N)c1Cl [Compound 19, Methyl 4-amino-3-chloro-6-(2,4-dichloro-3-fluorophenyl)-5-fluoropicolinate] | 95 to 100

Same assay, conditions: Brassica napus, post-emergence, 336 h, BRSSS: oilseed rape, canola (Brassica napus), application rate 140 (kg ai/ha; footnote: g ai/ha), read-out: Visual Growth Reduction (%) 14 Days After Application BRSSS

SMILES | pest or weed control at 140 g/ha [%]
COC(=O)c1nc(-c2ccc(Cl)c(F)c2Cl)c(F)c(N)c1Cl [Compound 19, Methyl 4-amino-3-chloro-6-(2,4-dichloro-3-fluorophenyl)-5-fluoropicolinate] | 95 to 100

Same assay, conditions: Chenopodium album, post-emergence, 336 h, CHEAL: lambsquarters (Chenopodium album), application rate 70 (kg ai/ha; footnote: g ai/ha), read-out: Visual Growth Reduction (%) 14 Days After Application CHEAL

SMILES | pest or weed control at 70 g/ha [%]
COC(=O)c1nc(-c2ccc(Cl)c(F)c2Cl)c(F)c(N)c1Cl [Compound 19, Methyl 4-amino-3-chloro-6-(2,4-dichloro-3-fluorophenyl)-5-fluoropicolinate] | 85 to 94

Same assay, conditions: Chenopodium album, post-emergence, 336 h, CHEAL: lambsquarters (Chenopodium album), application rate 140 (kg ai/ha; footnote: g ai/ha), read-out: Visual Growth Reduction (%) 14 Days After Application CHEAL

SMILES | pest or weed control at 140 g/ha [%]
COC(=O)c1nc(-c2ccc(Cl)c(F)c2Cl)c(F)c(N)c1Cl [Compound 19, Methyl 4-amino-3-chloro-6-(2,4-dichloro-3-fluorophenyl)-5-fluoropicolinate] | 95 to 100

Same assay, conditions: Euphorbia heterophylla, post-emergence, 336 h, EPHHL: wild poinsettia (Euphorbia heterophylla), application rate 70 (kg ai/ha; footnote: g ai/ha), read-out: Visual Growth Reduction (%) 14 Days After Application EPHHL

SMILES | pest or weed control at 70 g/ha [%]
COC(=O)c1nc(-c2ccc(Cl)c(F)c2Cl)c(F)c(N)c1Cl [Compound 19, Methyl 4-amino-3-chloro-6-(2,4-dichloro-3-fluorophenyl)-5-fluoropicolinate] | 85 to 94

Same assay, conditions: Euphorbia heterophylla, post-emergence, 336 h, EPHHL: wild poinsettia (Euphorbia heterophylla), application rate 140 (kg ai/ha; footnote: g ai/ha), read-out: Visual Growth Reduction (%) 14 Days After Application EPHHL

SMILES | pest or weed control at 140 g/ha [%]
COC(=O)c1nc(-c2ccc(Cl)c(F)c2Cl)c(F)c(N)c1Cl [Compound 19, Methyl 4-amino-3-chloro-6-(2,4-dichloro-3-fluorophenyl)-5-fluoropicolinate] | 95 to 100

Same assay, conditions: Helianthus annuus, post-emergence, 336 h, HELAN: sunflower (Helianthus annuus), application rate 70 (kg ai/ha; footnote: g ai/ha), read-out: Visual Growth Reduction (%) 14 Days After Application HELAN

SMILES | pest or weed control at 70 g/ha [%]
COC(=O)c1nc(-c2ccc(Cl)c(F)c2Cl)c(F)c(N)c1Cl [Compound 19, Methyl 4-amino-3-chloro-6-(2,4-dichloro-3-fluorophenyl)-5-fluoropicolinate] | 95 to 100

Same assay, conditions: Helianthus annuus, post-emergence, 336 h, HELAN: sunflower (Helianthus annuus), application rate 140 (kg ai/ha; footnote: g ai/ha), read-out: Visual Growth Reduction (%) 14 Days After Application HELAN

SMILES | pest or weed control at 140 g/ha [%]
COC(=O)c1nc(-c2ccc(Cl)c(F)c2Cl)c(F)c(N)c1Cl [Compound 19, Methyl 4-amino-3-chloro-6-(2,4-dichloro-3-fluorophenyl)-5-fluoropicolinate] | 95 to 100

Same assay, conditions: Viola tricolor, post-emergence, 336 h, VIOTR: wild pansy (Viola tricolor), application rate 70 (kg ai/ha; footnote: g ai/ha), read-out: Visual Growth Reduction (%) 14 Days After Application VIOTR

SMILES | pest or weed control at 70 g/ha [%]
COC(=O)c1nc(-c2ccc(Cl)c(F)c2Cl)c(F)c(N)c1Cl [Compound 19, Methyl 4-amino-3-chloro-6-(2,4-dichloro-3-fluorophenyl)-5-fluoropicolinate] | 85 to 94

Same assay, conditions: Viola tricolor, post-emergence, 336 h, VIOTR: wild pansy (Viola tricolor), application rate 140 (kg ai/ha; footnote: g ai/ha), read-out: Visual Growth Reduction (%) 14 Days After Application VIOTR

SMILES | pest or weed control at 140 g/ha [%]
COC(=O)c1nc(-c2ccc(Cl)c(F)c2Cl)c(F)c(N)c1Cl [Compound 19, Methyl 4-amino-3-chloro-6-(2,4-dichloro-3-fluorophenyl)-5-fluoropicolinate] | 95 to 100
